The text below walks through data of patent US20090087909A1, “Use of Trehalose in Conifer Somatic Embryogenesis to Increase Germination Vigor” (Weyerhaeuser Company, priority 2007, published 2009).

For this assay, the system named is Somatic embryos of Loblolly pine, genotypes C and D. The assay is described as follows: Germination rate, yield, germinants/ml, root and hypocotyl length, genotypes C and D (Example 4). In kind it is cell-based, Loblolly pine (Pinus taeda). The protocol:
Methods: Somatic embryos of Loblolly pine, genotypes C and D, were cultured as described in EXAMPLE 1 up to incubation in the maintenance media. After incubation in maintenance media using the methods described in EXAMPLE 1, advanced early stage somatic embryos were plated on semi-solid development medium BM3 (with 25 ppm ABA, 1% glucose and 2.5% maltose) at 25 embryos per plate, 15 plates per genotype. Specifically, at five weeks after plating, the media for 10 treatment plates per genotype were replaced with modified development media BM3 containing 5 ppm ABA instead of 25 ppm ABA. […]
After development, the embryos were transferred to stratification medium BM4, and germinated on medium BM5, as described in EXAMPLE 1. After 6 weeks incubation on germination medium, the embryos were assessed for germination rate, root length, hypocotyls length, and epicotyl length. […]
Plate yield was determined during singulation at eight weeks by counting the number of embryos present. […]
Data for germination rate was analyzed with a generalized linear model with a logit link. Yield, germinants/ml, root length, and hypocotyl length data were analyzed with a mixed linear model. […] When variance among all ten treatments was detected, the response means for the trehalose treatments only were compared using Fisher's LSD for multiple comparisons.

As to `OC[C@H]1O[C@H](O[C@H]2O[C@H](CO)[C@@H](O)[C@H](O)[C@H]2O)[C@H](O)[C@@H](O)[C@@H]1O` [trehalose, α-D-glucopyranosyl-[1,1]-α-D-glucopyranoside], the “Hypocotyl Length LS mean” value (combined genotypes C and D) was “positive effect on the hypocotyl length”. For the setting “genotype C”, the “Root Length genotype C mean” value is recorded as “induces greater root length development”.
